Test results published in ChEMBL document CHEMBL4308857, “Leishmania treatment and prevention: Natural and synthesized drugs” (Eur J Med Chem, 2018).
Converted amounts (≈) assume the structure as drawn.

Assays:
Leishmania donovani [1] = test: (§1) Antileishmanial activity against Leishmania donovani promastigotes infected in golden hamster assessed as reduction in parasitic load in spleen at 14 mg/kg, po administered 2 times a week for 4 weeks starting at 4 days post-infection measured 1 week post last dose by Giemsa staining-based assay relative to control; format: functional; design: scale not given: the % may be the effect or the level left
Leishmania donovani [2] = test: Antileishmanial activity against Leishmania donovani promastigotes after 48 hrs by MTT assay; format: functional, organism-based
Leishmania donovani [3] = test: Antileishmanial activity against Leishmania donovani amastigotes infected in mouse J774G8 cells after 48 to 72 hrs by Giemsa staining-based bright-field microscopic analysis; format: functional, organism-based
Leishmania amazonensis [4] = test: Antileishmanial activity against Leishmania amazonensis […]/BR/75/Josefa promastigotes; format: functional, organism-based
Leishmania amazonensis [5] = test: Antileishmanial activity against Leishmania amazonensis […]/BR/75/Josefa axenic amastigotes infected in mouse J774A1 cells; format: functional, organism-based; details: J774.A1
Leishmania amazonensis [6] = test: Antileishmanial activity against Leishmania amazonensis MHOM/BR/75/Josefa axenic amastigotes after 72 hrs by Neubauer hemocytometric analysis; format: functional, organism-based
Leishmania amazonensis [7] = test: Antileishmanial activity against Leishmania amazonensis MHOM/BR/75/Josefa intracellular amastigotes after 72 hrs by Neubauer hemocytometric analysis; format: functional, organism-based
Leishmania amazonensis [8] = test: Antileishmanial activity against Leishmania amazonensis MHOM/BR/75/Josefa promastigotes after 72 hrs by Neubauer hemocytometric analysis; format: functional, organism-based
Leishmania donovani [9] = test: Antileishmanial activity against Leishmania donovani MHOM/SD/00/1SD2D axenic amastigotes infected in human peripheral blood mononuclear cells after 3 days by 3H-thymidine incorporation assay; format: functional, organism-based
Leishmania donovani [10] = test: Antileishmanial activity against Leishmania donovani promastigotes infected in hamster assessed as reduction in parasitic load in spleen at 20 mg/kg, ip treated for 6 consecutive days measured at day 8 post last dose by 3H-thymidine incorporation assay relative to control; format: functional; design: scale not given: the % may be the effect or the level left
Leishmania major [11] = test: Antileishmanial activity against Leishmania major MHOM/IL/67/LRC-L137 promastigotes after 2 hrs by 3H-thymidine incorporation assay; format: functional, organism-based
Leishmania donovani [12] = test: Antileishmanial activity against Leishmania donovani promastigotes infected in hamster assessed as reduction in parasitic load in liver at 20 mg/kg, ip treated for 6 consecutive days measured at day 8 post last dose by 3H-thymidine incorporation assay relative to control; format: functional; design: scale not given: the % may be the effect or the level left
Leishmania major [13] = test: Antileishmanial activity against Leishmania major amastigotes; format: functional, organism-based
Leishmania donovani [14] = test: Antileishmanial activity against Leishmania donovani […]/IN/80/DD8 promastigotes after 72 hrs by MTT assay; format: functional, organism-based; details: […]/IN/80/DD8, 72 h
[15] = Cytotoxicity against BALB/c mouse peritoneal cells assessed as reduction in cell viability after 24 hrs by MTT assay; format: cell-based
Leishmania panamensis = test: Antileishmanial activity against GFP-fused Leishmania panamensis MHOM/CO/87/UA140pIR amastigotes infected in human U937 cells after 72 hrs by flow cytometric analysis; format: functional, organism-based; details: U-937, 72 h
[16] = Cytotoxicity against human U937 cells assessed as reduction in cell viability after 72 hrs by MTT assay; format: cell-based, U-937; details: read-out: LD50
Leishmania aethiopica = test: Antileishmanial activity against Leishmania aethiopica amastigotes; format: functional, organism-based
Leishmania amazonensis [17] = test: Antileishmanial activity against Leishmania amazonensis promastigotes; format: functional, organism-based
Leishmania amazonensis [18] = test: Antileishmanial activity against Leishmania amazonensis axenic amastigotes; format: functional, organism-based
Leishmania donovani [19] = test: as §1, with “3.5” for “14”; format: functional; design: scale not given: the % may be the effect or the level left
Leishmania infantum [20] = test: Antileishmanial activity against Leishmania infantum MCAN/BR/97/P142 promastigotes after 24 hrs; format: functional, organism-based; details: MCAN/BR/97/P142, 24 h
Leishmania amazonensis [21] = test: Antileishmanial activity against Leishmania amazonensis MHOM/BR/77/LTB0016 promastigotes after 24 hrs; format: functional, organism-based; details: MHOM/BR/77/LTB0016, 24 h
Leishmania donovani [22] = test: Antileishmanial activity against wild type Leishmania donovani LV9 promastigotes by MTT assay; format: functional, organism-based
Leishmania amazonensis [23] = test: Antileishmanial activity against Leishmania amazonensis MHOM/BR/76/LTB-012 axenic amastigotes after 72 hrs by MTT assay; format: functional, organism-based; details: MHOM/BR/76/LTB-012, 72 h
Leishmania amazonensis [24] = test: Antileishmanial activity against Leishmania amazonensis promastigotes assessed as reduction in parasitic growth after 5 to 7 days by Neubauer chamber analysis; format: functional, organism-based
Leishmania mexicana [25] = test: Antileishmanial activity against Leishmania mexicana LV4 promastigotes; format: functional, organism-based
Leishmania mexicana [26] = test: Antileishmanial activity against Leishmania mexicana LV4 amastigotes infected in BALB/c bone marrow-derived macrophages assessed as reduction in cell viability after 2 hrs by trypan blue staining based bright-field microscopic analysis; format: functional, organism-based; details: LV4, 2 h
Leishmania donovani [27] = test: Antileishmanial activity against Leishmania donovani intracellular amastigotes infected in mouse J774A.1 cells by flow cytometry; format: functional, organism-based; details: J774.A1
Leishmania amazonensis [28] = test: Antileishmanial activity against Leishmania amazonensis MCAN/ES/92/BCN83 axenic amastigotes infected in BALB/c mouse assessed as reduction in parasitic burden at 10 mg/kg, ip administered as daily dose for 3 continuous days and measured at day 5 post last dose by limit dilution assay relative to control; format: functional; design: scale not given: the % may be the effect or the level left
Leishmania infantum [29] = test: Antileishmanial activity against zymodemes of Leishmania infantum MCAN/ES/90/DP204 promastigotes by Neubauer chamber analysis; format: functional, organism-based
[30] = tested on: Mycobacterium tuberculosis; test: Antitubercular activity against Mycobacterium tuberculosis H37Rv ATCC 27294 after 7 to 10 days by Resazurin microtiter assay; format: functional, organism-based
[31] = tested on: Leishmania mexicana venezuelensis; test: Antileishmanial activity against Leishmania venezuelensis MHOM/VE/74/PM-H3 amastigotes infected in BALB/c mouse assessed as reduction in parasitic load in footpad at 14 to 56 mg/kg, sc bid treated for 15 days at interval of 4 days and measured at 1 week post last dose by Giemsa staining-based inverted microscopic analysis relative to control; format: functional; design: scale not given: the % may be the effect or the level left
Leishmania donovani [32] = test: Antileishmanial activity against Leishmania donovani MHOM/ET/ 67/L82 amastigotes infected in BALB/c mouse assessed as reduction in parasitic load in liver at 100 mg/kg, sc qd administered for 5 days measured at 3 days post last dose relative to control; format: functional; design: scale not given: the % may be the effect or the level left

Question: Which Activity (Leishmania donovani [1]) does the source give for `O=c1c(O)c(-c2ccc(O)c(O)c2)oc2cc(O)cc(O)c12` [QUERCETIN] here?
Answer: <=90%

Question: With `C/C=C1/C(=O)O[C@]23C=C[C@@H]4C(C(=O)OC)=CO[C@H](O[C@@H]12)[C@@H]43` [PLUMERICIN] as the compound, how does the IC50 (Leishmania donovani [2]) read?
Answer: 7.2 µM

Question: What about the IC50 (Leishmania donovani [3]) of the same compound?
Answer: 4.1 µM

Question: Which results are given for `CCCCNC(=O)c1cc2c([nH]c3ccccc32)c(-c2ccc(OC)cc2)n1`?
Answer: IC50 (Leishmania amazonensis [4]): 4.44 µM; IC50 (Leishmania amazonensis [5]): 12.5 µM

Question: With `C/C=C/c1ccc2oc(-c3ccc(O)c(OC)c3)c(C)c2c1` as the compound, how does the IC50 (Leishmania amazonensis [6]) read?
Answer: 13 µg/mL (≈ 44.2 µM)

Question: What about the IC50 (Leishmania amazonensis [7]) of the same compound?
Answer: 5 µg/mL (≈ 17 µM)

Question: And the IC50 (Leishmania amazonensis [8])?
Answer: 9 µg/mL (≈ 30.6 µM)

Question: With `C=CC(C)(C)c1cc(/C=C/C(=O)c2ccc(O)cc2)c(OC)cc1O` [LICOAGROCHACONE A] as the compound, how does the IC50 (Leishmania donovani [9]) read?
Answer: 0.9 µg/mL (≈ 2.66 µM)

Question: And the Activity (Leishmania donovani [10])?
Answer: >90%

Question: And the IC50 (Leishmania major [11])?
Answer: 7.2 µg/mL (≈ 21.3 µM)

Question: And the Activity (Leishmania donovani [12])?
Answer: >90%

Question: With `CC(C)c1nc2nc(N)nc(N)c2nc1C(C)C` as the compound, how does the IC50 (Leishmania major [13]) read?
Answer: 0.5 µM

Question: With `COc1cc(OC)c(C(c2c(O)c3ccccc3oc2=O)c2c(O)c3ccccc3oc2=O)c(OC)c1` as the compound, how does the IC50 (Leishmania donovani [14]) read?
Answer: 150 µg/mL (≈ 299 µM)

Question: Which CC50 at 24 h [15] does the source give for `Cc1nn(-c2ccc(S(=O)(=O)Nc3ccccc3)cc2)c(Cl)c1Br` here?
Answer: 144 µM

Question: Which IC50 (Leishmania donovani [2]) does the source give for `C/C=C1\C(=O)O[C@]23C=C[C@@H]4C(C(=O)OC)=CO[C@H](O[C@@H]12)[C@@H]43` [ISOPLUMERICIN] here?
Answer: 3.17 µM

Question: And the IC50 (Leishmania donovani [3])?
Answer: 1.41 µM

Question: What does the source list for `Cc1cc(=O)oc2cc(OCCCCOc3cc(Cl)ccc3Oc3ccc(Cl)cc3Cl)ccc12`?
Answer: EC50 (Leishmania panamensis): 27.5 µg/mL (≈ 52.9 µM); CC50 at 72 h [16]: > 200 µg/mL

Question: With `O=c1oc2ccccc2c(O)c1C(c1ccccc1)c1c(O)c2ccccc2oc1=O` as the compound, how does the IC50 (Leishmania donovani [14]) read?
Answer: 155 µg/mL (≈ 376 µM)

Question: For `CCC(=O)N1N=C(c2ccccc2)CC1c1cn(-c2ccccc2)nc1-c1ccc(C)cc1` (configuration not stated), which IC50 (Leishmania aethiopica) is on record?
Answer: 0.112 µg/mL (≈ 0.258 µM)

Question: For `O=c1ccoc2cc(OCCCCOc3cc(Cl)ccc3Oc3ccc(Cl)cc3Cl)ccc12`, which EC50 (Leishmania panamensis) is on record?
Answer: 7.5 µg/mL (≈ 14.8 µM)

Question: What about the CC50 at 72 h [16] of the same compound?
Answer: 15.8 µg/mL (≈ 31.2 µM)

Question: With `Cc1cccc(-c2ccn(S(=O)(=O)c3ccccc3)n2)c1NS(=O)(=O)c1ccccc1` as the compound, how does the IC50 (Leishmania amazonensis [17]) read?
Answer: 6.7 µM

Question: And the IC50 (Leishmania amazonensis [18])?
Answer: 56 µM

Question: With `COc1ccc(C(c2c(O)c3ccccc3oc2=O)c2c(O)c3ccccc3oc2=O)c(OC)c1` as the compound, how does the IC50 (Leishmania donovani [14]) read?
Answer: 158 µg/mL (≈ 333 µM)

Question: Which Activity (Leishmania donovani [19]) does the source give for `O=c1cc(-c2ccc(O)c(O)c2)oc2cc(O)cc(O)c12` [LUTEOLIN] here?
Answer: <=90%

Question: Which IC50 (Leishmania infantum [20]) does the source give for `Cc1nn(-c2ccc(S(=O)(=O)Nc3ccc(Cl)cc3)cc2)c(Cl)c1Br` here?
Answer: 0.065 µM

Question: What about the IC50 (Leishmania amazonensis [21]) of the same compound?
Answer: 0.072 µM

Question: What about the CC50 at 24 h [15] of the same compound?
Answer: 116 µM

Question: With `COc1ccc(N[C@]2(C(F)(F)F)O[C@@H]3O[C@@]4(C)CC[C@H]5[C@H](C)CC[C@@H]([C@H]2C)[C@@]35OO4)cc1` as the compound, how does the IC50 (Leishmania donovani [22]) read?
Answer: 1.5 µM

Question: With `O=C1C2=C(CCCC2)C2=NCCc3cccc1c32` as the compound, how does the IC50 (Leishmania amazonensis [23]) read?
Answer: 0.025 µM

Question: Which IC50 (Leishmania amazonensis [24]) does the source give for `C[C@@]12C[C@H]3OC(=O)[C@@H]1CO[C@]14O[C@@]5([C@H]2C1=O)[C@@]3(C)OC(=O)[C@@]5(O)CC[C@H]1[C@H]4C[C@H]2O[C@]23CC=CC(=O)[C@]13C` here?
Answer: 1.4 µM

Question: With `C=CCCCCC/C=C\CC#CC#C[C@@H](O)C=C` as the compound, how does the IC50 (Leishmania mexicana [25]) read?
Answer: 0.55 µM

Question: What about the IC50 (Leishmania mexicana [26]) of the same compound?
Answer: 0.48 µM

Question: For `c1ccc2c(c1)Sc1ccccc1S2` [THIANTHRENE], which IC50 (Leishmania donovani [27]) is on record?
Answer: 23 µM

Question: For `O=C1c2ccccc2C2=NCCc3cccc1c32`, which Activity (Leishmania amazonensis [28]) is on record?
Answer: <=90%

Question: What about the IC50 (Leishmania amazonensis [23]) of the same compound?
Answer: < 0.05 µM

Question: Which IC50 (Leishmania infantum [29]) does the source give for `CC(C)=CCC[C@@](C)(O)C1CC=C(C)CC1` (some centres not stated) here?
Answer: 11 µg/mL (≈ 49.4 µM)

Question: With `COC(=O)CC[C@@H](C)[C@H]1CC[C@H]2[C@@H]3[C@H](O)C[C@@H]4C[C@@H](n5cc(CNCCNc6ccnc7cc(Cl)ccc67)nn5)CC[C@]4(C)[C@H]3C[C@H](O)[C@]12C` as the compound, how does the IC50 [30] read?
Answer: 10.6 µM

Question: With `C/C=C/c1ccc2ccccc2n1` [CHIMANINE B] as the compound, how does the Activity [31] read?
Answer: 95%

Question: With `CC(=O)O[C@@]12CO[C@@H]1C[C@H](O)[C@@]1(C)C(=O)[C@H](O)C3=C(C)[C@@H](O)C[C@@](O)([C@@H](OC(=O)c4ccccc4)[C@H]21)C3(C)C` as the compound, how does the Activity (Leishmania donovani [32]) read?
Answer: 42%
